Assay results from patent US11098010B2 (priority 2017, dated 2021).

Each compound was assayed on HBV rcDNA in HepDE19 cells (assay: HepDE19 assay with bDNA quantitation of HBV rcDNA). Conditions: HepDE19 cells, inhibition of rcDNA formation, 7 day incubation, top concentration 25 μM; read-out: DE-19 bDNA EC50.
Format: cell-based, hepatitis B virus (HBV)

First: COC(=O)NC1c2c(F)ccc(C(=O)Nc3ccc(F)c(F)c3)c2CC1OC (stereo not shown) [Compound 244, O-methyl, N-(4-((3,4-difluorophenyl)carbamoyl)-7-fluoro-2-methoxy-2,3-dihydro-1H-inden-1-yl) carbamate]
Second: COC(=O)NC1CC(C)(C)c2c(C(=O)Nc3ccc(F)c(Cl)c3)ccc(F)c21 (stereo not shown) [Compound 282, O-methyl, N-(4-((3-chloro-4-fluorophenyl)carbamoyl)-7-fluoro-3,3-dimethyl-2,3-dihydro-1H-inden-1-yl) carbamate]
The EC50 of the first is 7.5-fold lower: 2 µM for the first, 15 µM for the second. The first is the more potent here.

First: O=C(N[C@H]1CCc2c(C(=O)Nc3ccc(F)c(Cl)c3)ccc(F)c21)OCc1ncn(C2CCCCO2)n1 (stereo partly drawn) [Compound 248, O-(1-(tetrahydro-2H-pyran-2-yl)-1H-1,2,4-triazol-3-yl)methyl, N-((S)-4-((3-chloro-4-fluorophenyl)carbamoyl)-7-fluoro-2,3-dihydro-1H-inden-1-yl) carbamate]
Second: O=C(NC1CCc2c(C(=O)Nc3ccc(F)c(Cl)c3)ccnc21)OCc1ccccn1 (stereo not shown) [Compound 265, O-pyridin-2-ylmethyl, N-(4-((3-chloro-4-fluorophenyl)carbamoyl)-6,7-dihydro-5H-cyclopenta[b]pyridin-7-yl) carbamate]
The EC50 of the first is 3.6-fold lower: 0.15 µM for the first, 0.54 µM for the second. The first is the more potent here.

Compared with O=C(Nc1ccc(F)c(Cl)c1)c1ccc(F)c2c1CCC21NC(=O)N(Cc2ccccn2)C1=O (stereo not shown) [Compound 259, N-(3-chloro-4-fluoro-phenyl)-7′-fluoro-2,5-dioxo-1-(2-pyridylmethyl) spiro[imidazolidine-4,1′-indane]-4′-carboxamide], O=C(NC1CCc2c(C(=O)Nc3ccc(F)c(Cl)c3)ccnc21)OCc1ccccn1 (stereo not shown) [Compound 266, O-Pyridin-2-ylmethyl, N-(4-((3-chloro-4-fluorophenyl)carbamoyl)-6,7-dihydro-5H-cyclopenta[b]pyridin-7-yl) carbamate] is 6.7-fold lower in EC50: 2.9 µM for the first, 0.43 µM for the second.

First: O=C(Nc1ccc(F)c(Cl)c1)c1ccc(F)c2c1CCC21NC(=O)N(Cc2ccccn2)C1=O (stereo not shown) [Compound 260, N-(3-chloro-4-fluoro-phenyl)-7-fluoro-2,5-dioxo-1-(2-pyridylmethyl)spiro [imidazolidine-4,1′-indane]-4′-carboxamide]
Second: O=C(NC1CCc2c(C(=O)Nc3ccc(F)c(Cl)c3)ccnc21)OCc1ccccn1 (stereo not shown) [Compound 267, O-Pyridin-2-ylmethyl, N-(4-((3-chloro-4-fluorophenyl)carbamoyl)-6,7-dihydro-5H-cyclopenta[b]pyridin-7-yl) carbamate]
The EC50 of the first is 2.7-fold higher: 13 µM for the first, 4.9 µM for the second. The second is the more potent here.

O=C(NC1CCc2c(C(=O)Nc3ccc(F)c(Cl)c3)cncc21)OCc1ccccn1 (stereo not shown) [Compound 269, O-pyridin-2-ylmethyl, N-(4-((3-chloro-4-fluorophenyl)carbamoyl)-6,7-dihydro-5H-cyclopenta[c]pyridin-7-yl) carbamate] was tested, and the EC50 was 2.3 µM.
Work on O=C(NC1CCc2c(C(=O)Nc3ccc(F)c(Cl)c3)cncc21)OCc1ccccn1 (stereo not shown) [Compound 270, O-Pyridin-2-ylmethyl, N-(4-((3-chloro-4-fluorophenyl)carbamoyl)-6,7-dihydro-5H-cyclopenta[c]pyridin-7-yl) carbamate] yielded an EC50 of 1.1 µM.

Same assay, conditions: Hepatitis B virus, HepDE19, 168 h, HepDE19 cells, inhibition of rcDNA formation, 7 day incubation, top concentration 25 μM; read-out: DE-19 bDNA EC50

Compared with CNC(=O)NC1c2c(F)ccc(C(=O)Nc3ccc(F)c(F)c3)c2CC1OC (stereo not shown) [Compound 245, N-(3,4-difluorophenyl)-7-fluoro-2-methoxy-1-(3-methylureido)-2,3-dihydro-1H-indene-4-carboxamide], COC1Cc2c(C(=O)Nc3ccc(F)c(F)c3)ccc(F)c2C1NC(=O)OCc1ccccn1 (stereo not shown) [Compound 246, O-pyridin-2-ylmethyl, N-(4-((3,4-difluorophenyl)carbamoyl)-7-fluoro-2-methoxy-2,3-dihydro-1H-inden-1-yl)carbamate] is 1.8-fold lower in EC50: 4.9 µM for the first, 2.7 µM for the second.

Going from COC1Cc2c(C(=O)Nc3ccc(F)c(Cl)c3)ccc(F)c2C1NC(=O)OCc1ccccn1 (stereo not shown) [Compound 247, O-pyridin-2-ylmethyl, N-(4-((3-chloro-4-fluorophenyl)carbamoyl)-7-fluoro-2-methoxy-2,3-dihydro-1H-inden-1-yl)carbamate] to N#CCCOC(=O)N[C@H]1CCc2c(C(=O)Nc3ccc(F)c(Cl)c3)ccc(F)c21 [Compound 255, O—(S)-2-Cyanoethyl, N-4-(3-chloro-4-fluorophenylcarbamoyl)-7-fluoro-2,3-dihydro-1H-inden-1-yl carbamate], the EC50 falls from 0.68 µM to 0.08 µM (8.5-fold). The second is the more potent here.

Compared with O=C(Nc1ccc(F)c(Cl)c1)c1ccc(F)c2c1CCC2=O [Compound 251, N-(3-Chloro-4-fluorophenyl)-7-fluoro-1-oxo-2,3-dihydro-1H-indene-4-carboxamide], O=C(Nc1ccc(F)c(Cl)c1)c1ccc(F)c2c1CCS2(=O)=O [Compound 272, N-(3-Chloro-4-fluorophenyl)-7-fluoro-2,3-dihydrobenzo[b]thiophene-4-carboxamide 1,1-dioxide] is 2.5-fold lower in EC50: 0.55 µM for the first, 0.22 µM for the second. The second is the more potent here.

First: [2H]C([2H])(OC(=O)N[C@H]1CCc2c(C(=O)Nc3ccc(F)c(Cl)c3)ccc(F)c21)c1ncn(C([2H])([2H])[2H])n1 [Compound 252, O-((1-(Methyl-d3)-1H-1,2,4-triazol-3-yl)methyl-d2, N—(S)-(4-((3-chloro-4-fluorophenyl)carbamoyl)-7-fluoro-2,3-dihydro-1H-inden-1-yl) carbamate]
Second: N#CCCCOC(=O)N[C@H]1CCc2c(C(=O)Nc3ccc(F)c(Cl)c3)ccc(F)c21 [Compound 256, O—(S)-3-Cyanopropyl, N-4-(3-chloro-4-fluorophenylcarbamoyl)-7-fluoro-2,3-dihydro-1H-inden-1-yl carbamate]
The EC50 of the first is 1.8-fold lower: 0.13 µM for the first, 0.24 µM for the second.

Going from CNC(=O)NC1CCc2c(C(=O)Nc3ccc(F)c(Cl)c3)ccnc21 (stereo not shown) [Compound 263, N-(3-Chloro-4-fluorophenyl)-7-(3-methylureido)-6,7-dihydro-5H-cyclopenta[b]pyridine-4-carboxamide] to COC(=O)NC1CCc2c(C(=O)Nc3ccc(F)c(Cl)c3)ccnc21 (stereo not shown) [Compound 264, O-Methyl, N-(4-((3-chloro-4-fluorophenyl)carbamoyl)-6,7-dihydro-5H-cyclopenta[b]pyridin-7-yl) carbamate], the EC50 falls from 1.9 µM to 0.54 µM (3.5-fold).

O=C(Nc1ccc(F)c(Cl)c1)c1cccc2c1CCS2(=O)=O [Compound 273, N-(3-Chloro-4-fluorophenyl)-2,3-dihydrobenzo[b]thiophene-4-carboxamide 1,1-dioxide] and O=C(Nc1ccc(F)c(Cl)c1)c1cccc2c1CNS2(=O)=O [Compound 275, N-(3-Chloro-4-fluorophenyl)-2,3-dihydrobenzo[d]isothiazole-4-carboxamide-1,1-dioxide] are within 1.5-fold of each other in EC50: 0.21 µM for the first, 0.25 µM for the second.

Compared with CC(C)(C)N1Cc2c(C(=O)Nc3ccc(F)c(Cl)c3)cccc2S1(=O)=O [Compound 274, 2-(tert-Butyl)-N-(3-chloro-4-fluorophenyl)-2,3-dihydrobenzo[d]isothiazole-4-carboxamide 1,1-dioxide], CN1Cc2c(C(=O)Nc3ccc(F)c(Cl)c3)cccc2S1(=O)=O [Compound 277, N-(3-Chloro-4-fluorophenyl)-2-methyl-2,3-dihydrobenzo[d]isothiazole-4-carboxamide 1,1-dioxide] is 1.9-fold lower in EC50: 4.1 µM for the first, 2.2 µM for the second.

O=C(Nc1ccc(F)c(Cl)c1)c1cccc2c1CN(CCO)S2(=O)=O [Compound 276, N-(3-Chloro-4-fluorophenyl)-2-(2-hydroxyethyl)-2,3-dihydrobenzo[d]isothiazole-4-carboxamide 1,1-dioxide] and CC(C)N1Cc2c(C(=O)Nc3ccc(F)c(Cl)c3)cccc2S1(=O)=O [Compound 278, N-(3-Chloro-4-fluorophenyl)-2-isopropyl-2,3-dihydrobenzo[d]isothiazole-4-carboxamide 1,1-dioxide] are within 1.5-fold of each other in EC50: 1.4 µM for the first, 1.3 µM for the second.

First: O=C(Nc1ccc(F)c(Cl)c1)c1cccc2c1CN(C1CC1)S2(=O)=O [Compound 279, N-(3-chloro-4-fluorophenyl)-2-cyclopropyl-2,3-dihydrobenzo[d]isothiazole-4-carboxamide 1,1-dioxide]
Second: CC(C)(C)[S@+]([O-])N[C@H]1CCc2c(C(=O)Nc3ccc(F)c(Cl)c3)ccc(F)c21 [Compound 280, (S)-1-(((S)-tert-Butylsulfinyl)amino)-N-(3-chloro-4-fluorophenyl)-7-fluoro-2,3-dihydro-1H-indene-4-carboxamide]
The EC50 of the first is 7.9-fold lower: 0.58 µM for the first, 4.6 µM for the second.

In the case of CC(C)(C)[S@@+]([O-])N[C@H]1CCc2c(C(=O)Nc3ccc(F)c(Cl)c3)ccc(F)c21 [Compound 281, (S)-1-(((R)-tert-Butylsulfinyl)amino)-N-(3-chloro-4-fluorophenyl)-7-fluoro-2,3-dihydro-1H-indene-4-carboxamide], the EC50 is reported as 4.4 µM.

Same assay, conditions: Hepatitis B virus, HepDE19, 168 h, read-out: DE-19 bDNA EC50 (μM), HepDE19 cells, inhibition of rcDNA formation, 7 day incubation, top concentration 25 μM

Going from O=C(N[C@H]1CCc2c(C(=O)Nc3ccc(F)c(Cl)c3)ccc(F)c21)OCc1ncn(COP(=O)(O)O)n1 [Compound 253, O-(1-((Phosphonoxy)methyl)-1H-1,2,4-triazol-3-yl)methyl, N—(S)-(4-((3-chloro-4-fluorophenyl)carbamoyl)-7-fluoro-2,3-dihydro-1H-inden-1-yl) carbamate] to O=C(N[C@H]1CCc2c(C(=O)Nc3ccc(F)c(Cl)c3)ccc(F)c21)OCc1ccn(COP(=O)(O)O)n1 [Compound 254, Sodium (S)-(3-((((4-((3-chloro-4-fluorophenyl)carbamoyl)-7-fluoro-2,3-dihydro-1H-inden-1-yl)carbamoyl)oxy)methyl)-1H-pyrazol-1-yl)methyl phosphate], the EC50 rises from 0.12 µM to 0.57 µM (4.8-fold).
